Patent US8535617B2, “Blood cell barrier for a lateral flow device” (Kimberly-Clark Worldwide, Inc., priority 2007, dated 2013)

Columns and labels:
[1] = test system: fresh human blood; test: Blood separation on filter paper strips with a linoleic acid line, eluted with water; conditions: Whatman filter paper strip
Description: (§1) A circle of Whatman filter paper (Qualitative 18.5 cm) was cut into strips (16 cm×2 cm). A thin line of linoleic acid was placed 8 cm from the bottom end of the strip using a syringe with needle, to lay down a thin line of liquid (approximately 5-10 μl). Next, a drop (20 μl) of fresh human blood was placed onto the strip 4 cm up from the bottom. A control strip was prepared in a similar manner except no linoleic acid was placed on the control strip. The strips were then attached to a glass rod, being 6 cm away from each other, using scotch tape. In a manner similar to paper chromatography, the strips were placed into a tall beaker (2 liter volume) containing deionized water (50 ml) in such a manner that the bottom end of the paper strips just entered the water. The water wicked up the vertically hanging strips.
The system was allowed to run for another 20 minutes after which time the strips were taken out and allowed to air dry. Both strips were then sprayed with a ninhydrin spray to detect amino acids. […] The control had traces present along the length and a strong presence where the blood spot had stopped.

[2] = test system: fresh human blood; test: Blood separation on nitrocellulose lateral flow membrane strips with a linoleic acid line
Description: as §1
The experiment described in Example 1 was repeated but using nitrocellulose lateral flow membrane strips (Bangs Laboratories Inc., Fishers Ind.) in place of the paper strips. The same procedure was conducted and at the end of the flow period (20 minutes) the strips were allowed to dry. […] In contrast, the control strip allowed the blood to travel up the entire length of the strip. […]

## CCCCCC=CCC=CCCCCCCCC(=O)O [linoleic acid, 9,12-octadecadienoic acid]
[1]; 20 μl blood, line of approximately 5-10 μl linoleic acid, eluted by deionized water
  movement of blood spot on strip: halt at the line where the linoleic acid had been placed
[1]; after air drying, visual purple color
  ninhydrin spray detection of amino acids: presence of amino acids after the line
[2]; nitrocellulose lateral flow membrane strip, flow period 20 minutes
  movement of blood spot on strip: halted at the linoleic acid line
[2]; nitrocellulose strip, beyond the linoleic acid line, visual pink color
  phenolphthalin / 3% hydrogen peroxide spot test for dried blood and hemoglobin: no pink color developed
